Experimental data as given in ChEMBL document CHEMBL1201862, “PubChem BioAssay data set” (2004).
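Cultured in 96-well plates, cells were exposed to test compound for 48 hours across five concentrations. At the GI50, growth is halved.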 The source made the active and inactive calls. Cut-off read from the data, not from the text of the source: active = GI50 up to about 1.1 µM and inactive = higher.

Legend:
Assay in all cases: growth of human tumour cells (NCI), 48 h
ACHN = tested on: ACHN
HOP-92 = tested on: HOP-92
EKVX = tested on: EKVX
OVCAR-5 = tested on: OVCAR-5
A549 = tested on: A549
MOLT-4 = tested on: MOLT-4
OVCAR-3 = tested on: OVCAR-3
HCC 2998 = tested on: HCC 2998
SK-MEL-2 = tested on: SK-MEL-2
UACC-62 = tested on: UACC-62
MDA-MB-435 = tested on: MDA-MB-435
PC-3 = tested on: PC-3
CAKI-1 = tested on: CAKI-1
SW-620 = tested on: SW-620
IGROV-1 = tested on: IGROV-1
SF-268 = tested on: SF-268
NCI-H23 = tested on: NCI-H23
COLO 205 = tested on: COLO 205
NCI/ADR-RES = tested on: NCI/ADR-RES
A498 = tested on: A498

Measured: GI50

Clc1ccc(-c2cc3nc4ccccc4nc3o2)cc1
inactive: ACHN 25.4 µM | HOP-92 47.2 µM | EKVX > 100 µM | OVCAR-5 > 100 µM | A549 > 100 µM | MOLT-4 > 100 µM | OVCAR-3 > 100 µM | HCC 2998 > 100 µM | SK-MEL-2 > 100 µM | UACC-62 38.3 µM | MDA-MB-435 > 100 µM | PC-3 > 100 µM | CAKI-1 > 100 µM | SW-620 > 100 µM | IGROV-1 62.8 µM | SF-268 63.8 µM | NCI-H23 > 100 µM | COLO 205 > 100 µM | NCI/ADR-RES 52.5 µM | A498 > 100 µM

COc1cc2c3c(c1O)C1(C=CC(=O)C=C1)CC3N(C)CC2 (stereo not given) [GLAZIOVINE]
inactive: ACHN 14.5 µM | HOP-92 11.6 µM | EKVX 8.41 µM | OVCAR-5 19.3 µM | A549 22.4 µM | MOLT-4 4.26 µM | OVCAR-3 5.37 µM | HCC 2998 12.4 µM | SK-MEL-2 10.7 µM | UACC-62 11.1 µM | MDA-MB-435 11 µM | PC-3 14.3 µM | CAKI-1 7.29 µM | SW-620 5.89 µM | IGROV-1 6.22 µM | SF-268 11 µM | NCI-H23 11.2 µM | COLO 205 5.4 µM | NCI/ADR-RES 2.72 µM | A498 17.7 µM

CCN(CC)C1C(=O)NC1C#Cc1ccccc1 (stereo not given)
inactive: ACHN > 100 µM | HOP-92 18.9 µM | EKVX > 100 µM | OVCAR-5 > 100 µM | MOLT-4 > 10 µM | OVCAR-3 > 100 µM | HCC 2998 > 100 µM | SK-MEL-2 > 100 µM | UACC-62 > 100 µM | MDA-MB-435 40.8 µM | PC-3 > 100 µM | CAKI-1 38.4 µM | SW-620 69.5 µM | IGROV-1 67.5 µM | SF-268 > 100 µM | NCI-H23 71.4 µM | COLO 205 > 100 µM | NCI/ADR-RES > 100 µM | A498 > 100 µM

Fc1ccc(C(OCCN2CCC3CCC(C2)N3C/C=C/c2cccnc2)c2ccc(F)cc2)cc1 (stereo not given)
inactive: ACHN 14.2 µM | HOP-92 13.4 µM | EKVX 12.2 µM | OVCAR-5 13.8 µM | A549 11.8 µM | MOLT-4 2.48 µM | OVCAR-3 12.8 µM | HCC 2998 4.79 µM | SK-MEL-2 13.3 µM | UACC-62 12.3 µM | MDA-MB-435 11.1 µM | PC-3 9.93 µM | CAKI-1 12 µM | SW-620 10.1 µM | IGROV-1 13.3 µM | SF-268 12.8 µM | NCI-H23 12.8 µM | COLO 205 1.3 µM | NCI/ADR-RES 11.3 µM | A498 14.3 µM

COc1cccc2c(Nc3ccc(S(=O)(=O)N=C(N)N)cc3)c3ccc([N+](=O)[O-])cc3nc12
inactive: ACHN 10.2 µM | HOP-92 12.3 µM | EKVX 26.2 µM | OVCAR-5 44.6 µM | A549 20.2 µM | MOLT-4 2.29 µM | OVCAR-3 20.4 µM | HCC 2998 3.23 µM | SK-MEL-2 14.3 µM | UACC-62 5.98 µM | MDA-MB-435 23.6 µM | PC-3 18.7 µM | CAKI-1 5.57 µM | SW-620 16.7 µM | IGROV-1 8.2 µM | SF-268 5.62 µM | NCI-H23 14.7 µM | COLO 205 18.8 µM | NCI/ADR-RES > 100 µM | A498 19.1 µM

CC(O)CNC(=O)Nc1c(C(F)(F)F)cc(-c2ccccc2)[nH]c1=O (stereo not given)
inactive: ACHN > 100 µM | HOP-92 > 100 µM | EKVX > 100 µM | OVCAR-5 > 100 µM | A549 > 100 µM | MOLT-4 > 100 µM | OVCAR-3 > 100 µM | HCC 2998 > 100 µM | SK-MEL-2 > 100 µM | UACC-62 > 100 µM | MDA-MB-435 > 100 µM | PC-3 > 100 µM | CAKI-1 > 100 µM | SW-620 > 100 µM | IGROV-1 > 100 µM | SF-268 > 100 µM | NCI-H23 > 100 µM | COLO 205 > 100 µM | NCI/ADR-RES > 100 µM | A498 > 100 µM

COc1ccc(CCN2CCc3c(C)c(C#N)c4nc5ccccc5n4c32)cc1OC
inactive: ACHN 64.6 µM | HOP-92 22.8 µM | OVCAR-5 > 100 µM | A549 45.9 µM | OVCAR-3 27.2 µM | HCC 2998 40.7 µM | SK-MEL-2 16.3 µM | UACC-62 24.2 µM | MDA-MB-435 14.3 µM | PC-3 25.9 µM | CAKI-1 > 100 µM | SW-620 26.6 µM | IGROV-1 37.2 µM | SF-268 35.1 µM | NCI-H23 45.3 µM | COLO 205 30.3 µM | NCI/ADR-RES 27.4 µM | A498 54.6 µM

Cc1ccc(N2C(=O)CC(=O)N(NC(=O)C(C)Oc3ccccc3C)C2=S)cc1 (stereo not given)
inactive: ACHN > 100 µM | HOP-92 > 100 µM | EKVX > 100 µM | OVCAR-5 > 100 µM | A549 > 100 µM | MOLT-4 48 µM | OVCAR-3 > 100 µM | HCC 2998 > 100 µM | SK-MEL-2 > 100 µM | UACC-62 > 100 µM | MDA-MB-435 > 100 µM | PC-3 > 100 µM | CAKI-1 > 100 µM | SW-620 > 100 µM | IGROV-1 > 100 µM | SF-268 > 100 µM | NCI-H23 > 100 µM | COLO 205 > 100 µM | NCI/ADR-RES > 100 µM | A498 > 100 µM

Cc1nnc2cc(C(=O)O)c3ccccc3n2c1=O
inactive: HOP-92 > 10 µM | EKVX > 10 µM | OVCAR-5 > 10 µM | A549 > 10 µM | MOLT-4 > 10 µM | OVCAR-3 > 10 µM | HCC 2998 > 10 µM | SK-MEL-2 > 10 µM | UACC-62 > 10 µM | MDA-MB-435 > 10 µM | PC-3 > 10 µM | CAKI-1 > 10 µM | SW-620 > 10 µM | IGROV-1 > 10 µM | SF-268 > 10 µM | NCI-H23 > 10 µM | COLO 205 > 10 µM | NCI/ADR-RES > 10 µM | A498 > 10 µM

N#Cc1cc2c(n(C3OC(CO)C(O)C(O)C3O)c1=S)CCCCCC2 (stereo not given)
inactive: ACHN > 100 µM | HOP-92 > 100 µM | OVCAR-5 > 100 µM | A549 > 100 µM | MOLT-4 > 100 µM | OVCAR-3 > 100 µM | HCC 2998 > 100 µM | SK-MEL-2 > 100 µM | UACC-62 > 100 µM | MDA-MB-435 > 100 µM | PC-3 > 100 µM | CAKI-1 > 100 µM | SW-620 > 100 µM | IGROV-1 > 100 µM | SF-268 > 100 µM | NCI-H23 > 100 µM | COLO 205 > 100 µM | NCI/ADR-RES > 100 µM | A498 > 100 µM
